Patent US20230130823A1, “PROCESS FOR THE PRODUCTION OF ANTITUMOUR PHARMACEUTICAL COMPOSITIONS USING PUSH-PULL BUTADIENES, COMPOUNDS AND USES THEREOF” (ANHANGUERA EDUCACIONAL PARTICIPAÇÕES S/A, priority 2019, published 2023)
In brackets after ≈: the same amount, converted by molar mass. Several values for one entry are separate records, joined by “and”; a condition that tells them apart may be missing. Equal values may be shown once.

Experiments:
[1] = tested on: CaCo2; experiment: In vitro cytotoxicity, CaCo2 colon line; type: cell-based; conditions: Homo sapiens, Caco-2; CaCo2, colon; read-out: IC50
[2] = tested on: HT-29; experiment: In vitro cytotoxicity, HT-29 colon line; type: cell-based; conditions: Homo sapiens; HT-29, colon; read-out: IC50
[3] = tested on: Colo205; experiment: In vitro cytotoxicity, Colo205 colon line; type: cell-based; conditions: Homo sapiens, COLO 205; Colo205, colon; read-out: IC50
[4] = tested on: SW620; experiment: In vitro cytotoxicity, SW620 colon line; type: cell-based; conditions: Homo sapiens, SW-620; SW620, colon; read-out: IC50
[5] = tested on: CRO2B; experiment: In vitro cytotoxicity, CRO2B carcinoid line; type: cell-based; conditions: Homo sapiens, carcinoid, read-out: IC50
[6] = tested on: MIAP2; experiment: In vitro cytotoxicity, MIAP2 pancreas line; type: cell-based; conditions: Homo sapiens; MIAP2, pancreas; read-out: IC50
[7] = tested on: BxPC3; experiment: In vitro cytotoxicity, BxPC3 pancreas line; type: cell-based; conditions: Homo sapiens, BXPC-3; BxPC3, pancreas; read-out: IC50
[8] = tested on: PANC1; experiment: In vitro cytotoxicity, PANC1 pancreas line; type: cell-based; conditions: Homo sapiens, PANC-1; PANC1, pancreas; read-out: IC50
[9] = tested on: tumor cells line Colo205; experiment: Colo205 cell count; type: cell-based; conditions: compared to cells treated with culture medium only
Description: The compounds were tested for their ability to reduce the number of cells in the tumor, compared to cells treated with culture medium only. In Table 4, the results obtained are shown.

[10] = tested on: Colo205; experiment: Determination of apoptotic cells (subG1), Colo205, flow cytometry; type: cell-based; conditions: sub-diploid DNA content
Text: Determination of Apoptotic Cells (subG1)-Colo205
In this experiment, the proportion of apoptotic cells was identified, that is, cells showing DNA content below normal (sub-diploid) in flow cytometry testing.

[11] = tested on: Colo205; experiment: Analysis of the cell cycle phases, Colo205; type: cell-based; conditions: for Cell cycle phase (%) G2M: G2/M phase
Text: The compounds of this family were also studied for the distribution of the population of tumor cells in the different phases of the cell cycle: quiescent cells, non-proliferating (G1/G0 phase), which present DNA/RNA synthesis capacity (S phase) and cell division cells (G2/M phase).

[12] = tested on: lines of human carcinoma tested; experiment: In vitro cytotoxicity against the panel of human carcinoma lines; conditions: tumor cell lines of human carcinoma tested
[13] = tested on: 4T1 (murine mammary carcinoma); experiment: Cytotoxicity, 4T1 cells; type: cell-based; conditions: Mus musculus, read-out: CI50% tumor cells
[14] = tested on: MCF-7 (human mammary adenocarcinoma); experiment: Cytotoxicity, MCF-7 cells; type: cell-based; conditions: MCF7, read-out: CI50% tumor cells
[15] = tested on: SCC9 (squamous-cell carcinoma of the oral cavity); experiment: Cytotoxicity, SCC9 cells; type: cell-based; conditions: Homo sapiens, SCC-9, read-out: CI50% tumor cells
[16] = tested on: murine melanoma cells B16F10; experiment: MTT cytotoxicity in B16F10 melanoma cells; type: cell-based; conditions: for IC50: Mus musculus, B16-F10, B16F10 melanoma, 24 hours of culture, MTT, read-out: CI50% (the source's name)
Description: The tumor line of murine melanoma B16F10 was donated by the Ludwig-Switzerland Institute. Adherent cell suspensions of B16F10 cells were obtained for all experimental procedures by treating culture flasks with trypsin 0.2% for 5 minutes and inactivated with 10% fetal bovine serum. The detached cells were centrifuged twice, resuspended in supplemented RPMI-1640 medium. The count was performed in Malassez chamber, and the cell concentration was adjusted in 5×10^5 cells/ml, in RPMI-1640 culture medium supplemented with 10% fetal bovine serum and 7 ug polymyxin-B (Sigma Chemical Company, St Louis Mo.-USA).
Cell viability was determined by the Trypan Blue exclusion test, being greater than 95% of viable cells. The cells were grown in plates with 96 well plate flat bottoms (Corning), at a concentration of 2×10^5 cells, maintained for 24 hours in a CO2 oven at 37° C. After this period, the plates were centrifuged for 5 minutes, at 2000 rpm at 4° C., the supernatant discarded and added different concentrations of the compounds, diluted in RPMI-1640 culture medium, supplemented and increased by 7 μg of Polymyxin-B (Sigma Chemical Company). After treatment with the various diluted compounds in complete culture medium, the cells were incubated with 0.5 mg/mL of MTT reactive.
The cell viability test was performed to verify the effect of the various compounds on the various concentrations previously established: on the lines of tumor cells B16F10 and normal human fibroblasts. The MTT method consists of a cell viability test that measures the activity of mitochondrial dehydrogenase. MTT is a colorimetric method based on the capacity of living cells to reduce salt 3-(4,5-di-methylazole-2-IL)-2,5-diphenyl tetrazolium bromide in the formazan product (Mosmann, 1983). After the cells plating (concentration of 1×10^4 per well of the culture plate) in RPMI-1640 medium and 10% SFB medium, they were maintained at 37° C. for periods of 24, 48, 72 and 96 hours. Four hours before the set time was completed, MTT 20 μL (Sigma) was added (final concentration of […]). The plates were kept in the oven for the remaining four hours. After the stipulated time, 180 μL of the supernatant were removed from each well and then added 150 μL of dimethyl sulfoxide (Sigma) homogenizing well for the complete dissolution of the salt crystals formed by the mitochondrial metabolism resulting in a staining.
The 96-well plate was read by the spectrophotometer (Spectra MAX-190) using the wavelength of 570 nm. The results were analyzed by absorbance of each well. The percentage of viability was obtained using the following formula: [(Absorbance of treated cells/Absorbance of untreated cells)×100]. The experiments were carried out in quadruplicate.
The samples of the compounds obtained by synthesis chemistry were diluted in DMSO solution at the final concentration of 10%.

[17] = tested on: HUVEC (Normal human endothelial cell); experiment: Cytotoxicity, HUVEC normal cells
[18] = tested on: FN-1 (Normal human fibroblast); experiment: Cytotoxicity, normal human fibroblasts; type: cell-based; conditions: fibroblasts
Description: Fragments of cutaneous biopsies from patients treated by the Dermatology Service of the Clinic Hospital of the Medicine School of USP were removed for routine diagnostic procedures and part of the surgical flap edge immersed in Eagle culture medium modified by Dulbecco's (DMEM, Sigma Chemical Co., St. Louis, Mo., USA) added of 10% fetal bovine serum (Cultilab Ltda., Campinas-SP), […] and 50 ng/ml amphotericin B at 4 C and kept at 4 C for a maximum of 16 hours.
The fragments were washed three times in the same solution, cut into fragments of approximately 1 mm^3 and transferred to 25 cm^2 culture flasks, kept at 37 C, humid atmosphere containing 5% CO2. Cell growth monitored daily, photo documented in inversion microscopy and culture medium exchanged every 2 or 3 days, according to cell metabolism.
After 7 days, the first change in the culture medium of the flasks was performed once cell growth started, the culture medium was renewed every three days. Plastic flasks were used for cultivation of 25 cm^2 of cultivated area, where more 3 ml of DME medium containing 10% fetal bovine serum and 1% of antibiotic-antimycotic solution will be added.
The cell viability test was performed to verify the effect of the various compounds on the various concentrations previously established: on the lines of tumor cells B16F10 and normal human fibroblasts. The MTT method consists of a cell viability test that measures the activity of mitochondrial dehydrogenase. MTT is a colorimetric method based on the capacity of living cells to reduce salt 3-(4,5-di-methylazole-2-IL)-2,5-diphenyl tetrazolium bromide in the formazan product (Mosmann, 1983). […]
The 96-well plate was read by the spectrophotometer (Spectra MAX-190) using the wavelength of 570 nm. The results were analyzed by absorbance of each well. The percentage of viability was obtained using the following formula: [(Absorbance of treated cells/Absorbance of untreated cells)×100]. […]

Row | SMILES | IC50 [1] | IC50 [2] | IC50 [3] | IC50 [4] | IC50 [5] | IC50 [6] | IC50 [7] | IC50 [8] | Relative number of cells (% ± standard deviation) [9] | Percentage of cells (apoptotic, subG1) [10] | Cell cycle phase (%) G1/G0 [11] | Cell cycle phase (%) G2M [11] | Cell cycle phase (%) S [11] | cytotoxic activity (in words) [12] | IC50 [16] | also measured
1 | CC(C)=CCOc1ccc(C(C)=C(C#N)C#N)cc1 [Compound 2] | 163 µM | 92 µM | 149 µM | 134 µM | 149 µM | 155 µM | 160 µM | 177 µM | 12.7 ± 0.339% | 35.7 ± 1.485% | 90.0 ± 0.91% | 0.8 ± 0.42% | 9.15 ± 0.49% | exhibited a better cytotoxic activity | – | –
2 | COc1cc(/C=C/C(=O)/C=C/C=C(Cl)/C=C/c2ccc(OC)c(OC)c2)ccc1O [Compound 29, (1E,4E,6Z,8E)-7-chloro-1-(4-hydroxy-3-methoxyphenyl)-9-(3,4-dimethoxyphenyl)nona-1,4,6,8-tetraen-3-ona] | – | – | – | – | – | – | – | – | – | – | – | – | – | – | – | IC50 [13]: 8.27 µM; IC50 [14]: 0.701 µM; IC50 [15]: 9.22 µM
3 | O=CC=C(Cl)c1ccc(OC(=O)c2ccccc2)cc1OC(=O)c1ccccc1 [Compound 27, 3-Chloro-3-(2,4-benzoyloxy-phenyl)propenal] | – | – | – | – | – | – | – | – | 32.3 ± 1.017% | 18.0 ± 0.354% | 54.2 ± 0.35% | 12.4 ± 0.63% | 33.4 ± 0.21% | – | – | –
4 | CC(=O)c1ccccc1C(=O)Oc1ccccc1 [Compound 4, 2-Acetyl Benzoate of Phenyl] | – | – | – | – | – | – | – | – | – | – | – | – | – | inactive | – | –
5 | CCSC(=CC(=C(C#N)C#N)c1ccc(OCC=C(C)C)cc1)SCC [Compound 3] | 8.07 µM | 3.9 µM | 14.3 µM | 11.7 µM | 6.51 µM | 3.9 µM | 24.2 µM | 50 µM | – | – | – | – | – | potent cytotoxic activity | – | –
6 | CC(=O)C(=C/C=C(\Cl)c1ccc(I)cc1)C(C)=O [Compound 18, 3-acetyl-6-chloro-6-(4-iodophenyl)-hexa-3,5-diene-2-ona] | – | – | – | – | – | – | – | – | – | – | – | – | – | – | – | times more active ([16]; compared with the acetylacetone-derived benzoate isomers): ~7 times; IC50 [13]: 3.71 µM; IC50 [14]: 0.666 µM; IC50 [15]: 10.9 µM
7 | O=C(Oc1ccc(/C(Cl)=C/C=C/[N+](=O)[O-])cc1)c1ccccc1 [Compound 16, 4-(1-chloro-4-nitro-buta-1,3-dienyl)phenyl Benzoate] | – | – | – | – | – | – | – | – | – | – | – | – | – | – | 34.9 µg/mL and 106 µM | –
8 | COc1ccc(C(=O)/C(C#N)=C/C=C(\Cl)c2ccc(I)cc2)cc1OC [Compound 21, 5-chloro-2-(3,4-dimethoxy-benzoyl)-5-(4-iodine-phenyl)-penta-2,4-dienonitrile] | – | – | – | – | – | – | – | – | – | – | – | – | – | – | – | IC50 [13]: 6.44 µM; IC50 [14]: 0.293 µM; IC50 [15]: 0.858 µM; CI50% Normal cells [17]: 16.4 µM
9 | O=C(Oc1ccccc1/C(Cl)=C/C=C/[N+](=O)[O-])c1ccccc1 [Compound 7, 2-(1-chloro-4-nitro-buta-1,3-dienyl)phenyl Benzoate] | – | – | – | – | – | – | – | – | – | – | – | – | – | little antitumor activity | 3.27 µg/mL and 9.93 µM | activity relative to compound 6 ([16]; B16F10, compared with compound 6): almost ten times more active
10 | N#CC(C#N)=C/C=C(\Cl)c1ccccc1OC(=O)c1ccccc1 [Compound 6, 2-(1-chloro-4,4-dicyano-buta-1,3-dienyl)phenyl Benzoate] | 9.25 µM | 4.47 µM | 16.4 µM | 13.4 µM | 7.46 µM | 4.47 µM | 27.7 µM | 57.3 µM | 12.7 ± 0.339% | 41.8 ± 0.141% | 64.3 ± 1.69% | 16.0 ± 0.28% | 19.7 ± 1.48% | potent in vitro activity | 30.6 µg/mL and 91.6 µM | activity against fibroblasts (in words) [18]: significant activity
11 | N#CC(C#N)=C/C=C(\Cl)c1ccc(OC(=O)c2ccccc2)cc1 [Compound 14, 4-(1-chloro-4,4-dicyano-buta-1,3-dienyl)phenyl Benzoate] | – | – | – | – | – | – | – | – | – | – | – | – | – | – | 168 µg/mL (≈ 503 µM) | –
12 | CC(=O)c1ccc(OCC=C(C)C)cc1 [Compound 1, 4-(3-methylbut-2-enyl-oxyi)acetophenone] | 759 µM | 455 µM | 1030 µM | 980 µM | 666 µM | 823 µM | 725 µM | 759 µM | 70.2 ± 0.339% | 5.2 ± 0.566% | 48.0 ± 2.54% | 5.0 ± 2.26% | 47.0 ± 0.28% | showed no cytotoxic activity | – | –
